Measurements as given in PMC9953967, “Discovery of Novel Bioactive Tanshinones and Carnosol Analogues against Breast Cancer” (Cancers, 2023).
Where two headings read alike, the source gives them in different places.

Key:
MCF07 [1] = test: CellTiterGlo luminescent cell viability assay, MCF07
Description: (§1) A cell proliferation assay was performed using the CellTiterGlo (CTG, Promega Corp., Madison, WI, USA) luminescent cell viability assay kit. MDA-MB231 cells were seeded into 96-well plates at concentrations experimentally determined to ensure logarithmic growth during the duration of the experiment and to prevent adverse effects on cell growth by DMSO exposure. The plates were incubated 12 h before treatment. […] The final concentration of DMSO was 0.3% (v/v) in each well. The positive control used was staurosporine (1 μM) and a toxic quinolone generated inhouse, as kill-all controls, and the negative control used was cholesterol. […] The plates were incubated for 72 h and then quenched with CTG at 50 μL per well at RT. Plates were then incubated at RT for 20 min and centrifuged at 1000 rpm for 1 min. Luminescence was read on a CLARIOstar Plus plate reader (BMG LabTech, Ortenberg, Germany). The cell viability assay was also performed in the non-neoplastic cell line BJ, which was incubated with compounds, as mentioned in cell viability assay (CTG). The mean luminescence of each experimental treatment group was normalized as a percentage of the mean intensity of untreated controls. EC50 values were calculated from dose-response curve-fitting via non-linear regression using GraphPad Prism 9.0 (GraphPad Software, San Diego, CA, USA) (Figure S1).

MDA-MB231 [2] = test system: MDA-MB231; parameters: method as in PMID 26241873; conditions: cited from earlier work
SUM149 [3] = test: CellTiterGlo luminescent cell viability assay, SUM149
Description: as §1

[4] = CellTiterGlo cell viability assay, non-neoplastic cell line BJ; conditions: human, BJ cells (non-neoplastic, non-tumorigenic cell line), Cytotoxicity IC50 BJ, 72 h incubation, CellTiter-Glo, mean ± SD
Description: as §1

MDA-MB231 [5] = test: CellTiterGlo luminescent cell viability assay, MDA-MB231
Description: as §1

T47D [6] = test: CellTiterGlo luminescent cell viability assay, T47D; conditions: Homo sapiens, 72 h
Description: as §1

[7] = test system: several cell models of breast cancer; parameters: method as in PMID 26241873; conditions: read-out: EC50 antiproliferative activity; cited from earlier work
in vitro = conditions: human, Cytotoxicity IC50 BJ
Description: as §1

MDA-MB231 [8] = test system: MDA-MB231; parameters: method as in PMID 30793595; conditions: read-out: Antiproliferative activity, sulforhodamine B assay, MDA-MB231; cited from earlier work
HBL-100 and T-47D = test system: HBL-100 and T-47D; parameters: method as in PMID 30840453; conditions: two breast cancer cell lines HBL-100 and T-47D, SRB assay; cited from earlier work
MCF-7 = test system: MCF-7; parameters: method as in PMID 30793595; conditions: read-out: Antiproliferative activity, sulforhodamine B assay, MCF-7; cited from earlier work
[9] = test system: non-tumorigenic cell line BJ; test: CellTiterGlo cell viability assay, non-neoplastic cell line BJ; conditions: read-out: Cytotoxicity IC50 BJ, 72 h incubation, CellTiter-Glo, mean ± SD
Description: as §1

[10] = Ferric Reducing Antioxidant Power (FRAP) assay; conditions: compounds at 100 μM; positive control ascorbic acid 1 mM
Description: An antioxidant evaluation of the compounds was performed using the Ferric Reducing Antioxidant Power (FRAP) Assay Colorimetric Kit (ab234626, Abcam, Cambridge, UK) following the manufacturers’ instructions. Briefly, FRAP reagents were mixed with compounds at 100 μM in 96-well plates, and then reacted for 10 min at 37 °C in the dark. Ascorbic acid was provided as the positive control (1mM). After incubation, the absorbance was read using a microplate reader (CLARIOstar Plus, BMG LabTech, Ortenberg, Germany) at 594 nm. FRAP [19] was quantified using a reagent calibration curve (Y = 0.039X + 0.002, R^2 = 0.9978) and calculated as nmol Ferrous equivalents.

MDA-MB231 [11] = test: Propidium iodide (PI) assay with Hoechst counterstain; format: cell-based, human; conditions: MDA-MB231, 48 h, 25 μM
Description: Propidium iodide (PI) assay was performed to complement the viability assay. The assay was conducted with MDA-MB231 cancer cell models seeded in 48-well plates (Clear, Corning#3548) and cultured for 12 h, then treated for 48 h. Cells were fixed with cold methanol, and stained (0.4% PI, Sigma-Aldrich, Co., St. Louis, MO, USA). Fluorescence was measured and analyzed using Cytation 1 Image Reader (BioTek, Winooski, VT, USA). Cell viability was calculated/plotted as the percentage of surviving cells after treatment relative to the vehicle. For qualitative analysis and visualization, doubling staining was performed using Hoechst dye to stain nuclei.

SUM149 [12] = test system: SUM149
Description: as §1

[13] = test system: non-tumorigenic cell line BJ; conditions: human, 72 h
Description: as §1

MCF07 [14] = test system: MCF07
Description: as §1

T47D [15] = conditions: human, 72 h
Description: as §1

[16] = Homo sapiens, 72 h, read-out: Cytotoxicity IC50 MCF07, 72 h incubation, CellTiter-Glo, mean ± SD
[17] = Homo sapiens, SUM149, 72 h, read-out: Cytotoxicity IC50 SUM149
[18] = Homo sapiens, MDA-MB-231, 72 h, read-out: Cytotoxicity IC50 MDA-MB231, 72 h incubation, CellTiter-Glo, mean ± SD
[19] = read-out: Cytotoxicity IC50 T47D, 72 h incubation, CellTiter-Glo, mean ± SD
[20] = read-out: Cytotoxicity IC50 MDA-MB231, 72 h incubation, CellTiter-Glo, mean ± SD

Compound	IC50 (MCF07 [1]; [16]) [µM]	IC50 (SUM149 [3]; [17]) [µM]	IC50 at 72 h [4] [µM]	IC50 (MDA-MB231 [5]; [18]) [µM]	IC50 (T47D [6]; [19]) [µM]	EC50 [7] [µM]	IC50 at 72 h (in vitro) [µM]	IC50 [9] [µM]	also measured
CC(C)c1cc2c(cc1O)[C@@]1(C)CCCC(C)(C)[C@@H]1CC2 [Compound 1, ferruginol]	19 ± 1.5	> 50	> 50	8.3 ± 1.4	> 100	< 50	–	–	Inhibition of cell cycle progression at the G2/M phase (MDA-MB231 [2]): 19%; Cell cycle arrest at G0/G1 (MDA-MB231 [2]; positive control 43%, negative control 48.36%): 50.76%
CC(C)c1cc2c(cc1O)[C@@]1(C)CCC[C@@](C)(CN)[C@@H]1CC2 [Compound 2, 12-hydroxydehydroabietylamine]	10 ± 1.5	4.4 ± 0.3	–	5.1 ± 0.6	> 50	–	75 ± 6.2	–	–
CC(C)c1cc2c(c(O)c1O)[C@@]13CCCC(C)(C)[C@@H]1C[C@@H]2OC3=O [Compound 4, carnosol]	–	–	–	–	–	< 50	–	–	–
COC(=O)[C@]1(C)CCC[C@]2(C)c3cc(O)c(C(C)C)cc3CC[C@@H]12 [Compound 5, Methyl 12-hydroxyabieta-8,11,13-trien-18-oate]	–	–	–	–	–	–	–	–	IC50 (MDA-MB231 [8]): 18.6 µM; GI50 (HBL-100 and T-47D): 9.7 to 19 µM; IC50 (MCF-7): 5.9 µM
CC(C)c1cc2c(cc1O)[C@@]1(C)CCC[C@@](C)(CN3C(=O)c4ccccc4C3=O)[C@@H]1CC2 [Compound 6, 18-(phthalimid-2-yl)ferruginol]	–	–	74.8 ± 5.3	8.22 ± 0.47	–	–	–	74.8 ± 5.3	IC50 (MCF07 [1]; Homo sapiens, 72 h, read-out: Cytotoxicity IC50 MCF07): 13 ± 0.6 µM; IC50 (SUM149 [3]; Homo sapiens, SUM149, 72 h, read-out: Cytotoxicity IC50 SUM149, 72 h incubation, CellTiter-Glo, mean ± SD): 4.45 ± 0.2 µM; IC50 (SUM149 [3]; read-out: Cytotoxicity IC50 SUM149, 72 h incubation, CellTiter-Glo, mean ± SD): 4.4 ± 0.2 µM; IC50 (MDA-MB231 [5]; [20]): 8.2 ± 0.5 µM; IC50 (T47D [6]; read-out: Cytotoxicity IC50 T47D): 29.2 ± 1.5 µM
COC(=O)[C@]1(C)CCC[C@]2(C)C3=C(C=C(C(C)C)C(=O)C3=O)CC[C@@H]12 [Compound 7, Methyl 11,12-Dioxo-abieta-8,13-dien-18-oate]	8.29 ± 0.93	1.3 ± 0.6	56.5 ± 6.1	3.95 ± 0.8	14.1 ± 0.5	–	–	56.5 ± 6.1	IC50 (MCF07 [1]; read-out: Cytotoxicity IC50 MCF07, 72 h incubation, CellTiter-Glo, mean ± SD): 8.3 ± 0.9 µM; Antioxidant potential (FRAP) [10]: significant antioxidant potential; IC50 (MDA-MB231 [5]; [20]): 3.9 ± 0.8 µM
CC(C)C1=CC2=C(C(=O)C1=O)[C@@]1(C)CCC[C@@](C)(CN3C(=O)c4ccccc4C3=O)[C@@H]1CC2 [Compound 8, 11,12-Dioxo-N,N-(phthaloyl)dehydroabietylamine]	2.3 ± 1.1	1.5 ± 0.4	35.4 ± 5	2.8 ± 0.4	18.7 ± 0.3	–	–	35.4 ± 5	Dose-dependent cell death (PI staining) (MDA-MB231 [11]): clearly indicates this dependency
COC(=O)[C@]1(C)CCC[C@]2(C)c3c(cc(C(C)C)c(O)c3O)CC[C@@H]12 [Compound 9, Methyl 11,12-Dihydroxy-dehydroabietate]	> 50	> 50	–	9.4 ± 0.4	14.4 ± 0.6	–	57.6 ± 3	–	Cytotoxicity IC50 SUM149 (SUM149 [12]): removed the activity; IC50 (MDA-MB231 [8]): 2.7 µM; Antioxidant potential (FRAP) [10]: significant antioxidant potential; IC50 [13]: 57.6 ± 3 µM; IC50 (MCF-7): 2.8 µM; Cytotoxicity IC50 MCF07 (MCF07 [14]): removed the activity
CC(C)c1cc2c(c(O)c1O)[C@@]1(C)CCC[C@@](C)(CN3C(=O)c4ccccc4C3=O)[C@@H]1CC2 [Compound 10, 11,12-Dihydroxy-N,N-(phthaloyl)dehydroabietylamine]	4.6 ± 0.6	1.8 ± 0.2	–	2.8 ± 0.2	8.17 ± 0.44	–	32.5 ± 5	–	IC50 (T47D [15]): 8.2 ± 0.4 µM; IC50 [13]: 32.5 ± 5 µM
CC(C)c1ccc2c(c1)CC[C@H]1[C@](C)(CN)CCC[C@]21C [dehydroabietylamine]	–	–	–	–	–	< 50	–	–	–
